Active and inactive are the calls of the source. No cut-off for these calls is given here.
What was measured:
[1] = molecular target: MAP kinase-interacting serine/threonine-protein kinase 1 (Homo sapiens, UniProt Q9BUB5); experiment: Inhibition of MKN1 (unknown origin) at 1 uM in presence of ATP by HTRF assay
[2] = system: MOLM-13; experiment: Antiproliferative activity against human MOLM13 cells assessed as reduction of cell viability incubated for 72 hrs by trypan blue staining based cell counting analysis; type: functional
[3] = molecular target: T1, MAP kinase-interacting serine/threonine-protein kinase 2 (Homo sapiens, UniProt Q9HBH9); experiment: Inhibition of wild type human partial length MKN2 (G63 to S388 residues) expressed in mammalian expression system at 1 uM by Kinomescan method relative to control
[4] = molecular target: T2, Serine/threonine-protein kinase pim-1 (Homo sapiens, UniProt P11309); experiment: Inhibition of wild-type human partial length PIM1 (A15 to K313 residues) expressed in bacterial expression system at 1 uM by Kinomescan method relative to control
[5] = molecular target: Epidermal growth factor receptor (Homo sapiens, UniProt P00533); experiment: Inhibition of wild-type human partial length EGFR (R669 to V1011 residues) expressed in bacterial expression system at 1 uM by Kinomescan method relative to control
[6] = molecular target: Receptor tyrosine-protein kinase erbB-2 (Homo sapiens, UniProt P04626); experiment: Inhibition of wild-type human partial length ERBB2 (K646 to V1225 residues) expressed in mammalian expression system at 1 uM by Kinomescan method relative to control
[7] = molecular target: T1, MAP kinase-interacting serine/threonine-protein kinase 2; experiment: Inhibition of wild type human partial length MKN2 (G63 to S388 residues) expressed in mammalian expression system by HTRF method
[8] = molecular target: T2, Serine/threonine-protein kinase pim-1; experiment: Inhibition of full length recombinant human PIM1 using KKRNRTLTV as substrate incubated for 40 mins in presence of [gamma33P]ATP by scintillation counting based radiometry assay
[9] = molecular target: Serine/threonine-protein kinase B-raf (Homo sapiens, UniProt P15056); experiment: Inhibition of recombinant human B-Raf (416 to end residues) using myelin as substrate incubated for 40 mins in presence of [gamma-33P]-ATP by radiometric scintillation counting analysis
[10] = system: HL-60; experiment: Antiproliferative activity against human HL-60 cells assessed as reduction of cell viability incubated for 72 hrs by trypan blue staining based cell counting analysis; type: functional
[11] = molecular target: T3, MAP kinase-interacting serine/threonine-protein kinase 1/2 (Homo sapiens) (UniProt Q9HBH9+Q9BUB5); experiment: Inhibition of MNK1/MNK2 in human MOLM-13 cells assessed as reduction in eIF4E phosphorylation at 1 to 2 uM incubated for 12 hrs by western blot analysis; type: cell-based; conditions: dose 1-2 µM
[12] = molecular target: T4, Serine/threonine-protein kinase PIM (Homo sapiens) (UniProt P11309+Q9P1W9+Q86V86); experiment: Inhibition of PIM in human MOLM-13 cells assessed as reduction of BAD phosphorylation at 1 to 2 uM incubated for 12 hrs by western blot analysis; type: cell-based; conditions: dose 1-2 µM
[13] = molecular target: T4, Serine/threonine-protein kinase PIM (Homo sapiens); experiment: Inhibition of PIM in human MOLM-13 cells assessed as reduction in phosphorylated 4EBP1 at 1 to 2 uM incubated for 12 hrs by western blot analysis; type: cell-based; conditions: dose 1-2 µM
[14] = system: MOLM-13; experiment: Downregulation of c-myc levels in human MOLM-13 cells at 1 to 2 uM incubated for 12 hrs by western blot analysis; type: functional, cell-based; conditions: dose 1-2 µM
[15] = system: MOLM-13; experiment: Downregulation of mcl-1 levels in human MOLM-13 cells at 1 to 2 uM incubated for 12 hrs by western blot analysis; type: functional, cell-based; conditions: dose 1-2 µM
[16] = molecular target: T3, MAP kinase-interacting serine/threonine-protein kinase 1/2 (Homo sapiens); experiment: Inhibition of MNK1/MNK2 in human K562 cells assessed as reduction in eIF4E phosphorylation at 1 to 2 uM incubated for 24 hrs by western blot analysis; type: cell-based; conditions: dose 1-2 µM
[17] = molecular target: T4, Serine/threonine-protein kinase PIM (Homo sapiens); experiment: Inhibition of PIM in human K562 cells assessed as reduction in phosphorylated 4EBP1 at 1 to 2 uM incubated for 24 hrs by western blot analysis; type: cell-based; conditions: dose 1-2 µM
[18] = system: MOLM-13; experiment: Induction of cell cycle arrest in human MOLM-13 cells assessed as sub-G1 phase at 1 uM incubated for 12 hr by propidium iodide based flow cytometry analysis (Rvb= 4.78%); type: functional
[19] = system: MOLM-13; experiment: Induction of cell cycle arrest in human MOLM-13 cells assessed as sub-G1 phase at 2 uM incubated for 12 hr by propidium iodide based flow cytometry analysis (Rvb= 4.78%); type: functional
[20] = system: MOLM-13; experiment: Induction of apoptosis in human MOLM-13 cells assessed as necrotic cells at 1 uM incubated for 12 hrs by annexin-V and propidium iodide staining based flow cytometry analysis (reference value: 0.06%); type: functional
[21] = system: MOLM-13; experiment: Induction of apoptosis in human MOLM-13 cells assessed as necrotic cells at 2 uM incubated for 12 hrs by annexin-V and propidium iodide staining based flow cytometry analysis (reference value: 0.06%); type: functional
[22] = system: MOLM-13; experiment: Induction of apoptosis in human MOLM-13 cells assessed as late apoptotic cells at 2 uM incubated for 12 hrs by annexin-V and propidium iodide staining based flow cytometry analysis (reference value: 3.03%); type: functional
[23] = system: MOLM-13; experiment: Antitumor activity against human MOLM-13 cells xenografted in NOD/SCID mouse assessed as tumor growth inhibition at 5 mg/kg, ip daily for 2 weeks; type: functional; conditions: MOLM-13, ip, 336 h, read-out: TGI
[24] = Toxicity in NOD/SCID mouse xenografted with human MOLM-13 cells assessed as decrease in body weight at 5 to 10 mg/kg, ip daily for 2 weeks; type: organism-based; conditions: in vivo, 336 h, dose 5-10 mg/kg
[25] = Toxicity in NOD/SCID mouse xenografted with human MOLM-13 cells assessed as abnormal changes in liver at 5 to 10 mg/kg, ip daily for 2 weeks by hematoxylin-eosin staining based histological analysis; type: organism-based; conditions: in vivo, 336 h, dose 5-10 mg/kg
[26] = Toxicity in NOD/SCID mouse xenografted with human MOLM-13 cells assessed as abnormal changes in spleen at 5 to 10 mg/kg, ip daily for 2 weeks by hematoxylin-eosin staining based histological analysis; type: organism-based; conditions: in vivo, 336 h, dose 5-10 mg/kg
[27] = Toxicity in NOD/SCID mouse xenografted with human MOLM-13 cells assessed as abnormal changes in lung at 5 to 10 mg/kg, ip daily for 2 weeks by hematoxylin-eosin staining based histological analysis; type: organism-based; conditions: in vivo, 336 h, dose 5-10 mg/kg
[28] = system: MOLM-13; experiment: Antitumor activity against human MOLM-13 cells xenografted in NOD/SCID mouse assessed as decrease in cyclin-D1 levels at 10 mg/kg, ip daily for 2 weeks by western blot analysis; type: functional, organism-based
[29] = Intrinsic clearance in rat liver microsomes preincubated for 10 mins followed by NADPH addition and further incubated upto 60 mins by LC-MS/MS analysis; type: ADME, Microsome; conditions: time <=70 min, read-out: CLH
[30] = Cmax in Sprague Dawley rat at 10 mg/kg, ip measured after 24 hrs; type: ADME, organism-based; design: route intraperitoneal, time 24 hrs, dose 10 mg/kg; conditions: in vivo
[31] = Tmax in Sprague Dawley rat at 2 mg/kg, iv measured after 24 hrs; type: ADME, organism-based; conditions: in vivo
[32] = Half life in Sprague Dawley rat at 10 mg/kg, ip measured after 24 hrs; type: ADME, organism-based; conditions: in vivo
[33] = AUC (0 to t) in Sprague Dawley rat at 10 mg/kg, ip measured after 24 hrs; type: ADME, organism-based; design: route intraperitoneal, time 24 hrs, dose 10 mg/kg; conditions: in vivo
[34] = AUC (0 to t) in Sprague Dawley rat at 10 mg/kg, po measured after 24 hrs; type: ADME, organism-based; design: route oral, dose 10 mg/kg, time 24 hrs; conditions: in vivo
[35] = AUC (0 to infinity) in Sprague Dawley rat at 2 mg/kg, iv measured after 24 hrs; type: ADME, organism-based; design: route intravenous, time 24 hrs, dose 2 mg/kg; conditions: in vivo
[36] = Oral bioavailability in Sprague Dawley rat at 10 mg/kg measured after 24 hrs; type: ADME, organism-based; conditions: in vivo

- inhibition [1]: 97%
- GI50 [2]: 1.23 µM
- inhibition [3]: 100%
- inhibition [4]: 96%
- inhibition [5]: 73%
- inhibition [6]: 60%
- IC50 [7]: 0.007 µM
- IC50 [8]: 0.043 µM
- IC50 [9]: 2.22 µM
- GI50 [10]: 1.5 µM
- inhibition [11]: Active
- inhibition [12]: Active
- inhibition [13]: Active
- inhibition [16]: Dose-Dependent Effect
- inhibition [17]: Dose-Dependent Effect
- CLint scaled [29]: 68.8 mL/min/kg
- Cmax [30]: 405 ng/mL
- Tmax [31]: 4.98 min
- half-life [32]: 4.4 h
- AUC(0-t) at 24 h [33]: 1660 ng·h/mL
- AUC(0-t) at 24 h [34]: 2850 ng·h/mL
- AUC(0-inf) [35]: 1720 ng·h/mL
- bioavailability [36]: 35.5%
Compound: CC(C)Oc1cc(F)ccc1Nc1ncnc2ccc(-c3ccc(C(=O)N4CCNCC4)cc3)nc12
- Activity [14]: Active
- Activity [15]: Active
- Activity [18]: 11.81%
- Activity [19]: 32.41%
- Activity [20]: 0.11%
- Activity [21]: 0.73%
- Activity [22]: 8.2%
- inhibition in vivo at 5 mg/kg [23]: 41.2%
- Activity [24]: Non-Toxic
- Activity [25]: Non-Toxic
- Activity [26]: Non-Toxic
- Activity [27]: Non-Toxic
- Activity [28]: Active
